Experiments:
[1] = system: MMPs (catabolic genes related to OA) in bone and cartilage channels; experiment: qPCR of MMP changes in OC device after defined inflammatory cytokines and drug candidate; assay type: cell-based, human; conditions: combination of defined inflammatory cytokines for 24 hours, then Tyrphostin-9; versus no treatment and cytokine alone; FIGS. 11A-11F
From the text: The qPCR data from extracted cells was obtained from the cells that can be individually extracted on a per-channel basis so that tissues can be analyzed separately. […] Statistical significance determined by Kruskal-Wallis non-parametric test followed by Dunn's post hoc. * p<0.05, ** p<0.01, and *** p<0.001. FIGS. 10A, 10C, and 10E show bone. FIGS. 10B, 10D, and 10F show cartilage.
FIGS. 11A-11F include data that show the MMP changes in response to the combination of defined cytokines and a drug candidate. Devices were exposed to a combination of defined inflammatory cytokines for 24 hours. After 24 hours, the devices were exposed to either fresh medium without cytokines, or to Tyrphostin-9 (TY9), a candidate compound with potential anti-inflammatory effects under consideration as a palliative for osteoarthritis (OA). […] Thus, the device can be used to screen for drugs to treat OA.

[2] = system: tri-culture of hMSC derived chondrocytes, hMSC derived osteoblasts and HUVEC; experiment: Inflammatory assay: oxidative stress (CellROX Orange ROS) in tri-culture OC device; assay type: cell-based, human; conditions: 100 ng/mL LPS perfused into channel 3, no RAP; 4 hours without flow; versus control; n=3; FIG. 8
Description: In the tri-culture device, OA-like cues were supplied to observe i) oxidative stress induced by LPS conditioning, and ii) the reduction of the oxidative stress in the simultaneous presence of LPS and the anti-inflammatory drug Rapamycin (RAP). Thus, three conditions were investigated: no insult (control,-LPS-RAP), insult (+LPS−RAP), and insult plus treatment (+LPS+RAP). For the insult, the medium was exchanged in established devices with 100 ng/mL LPS perfused into channel 3 to maximize inflammation across the device by supplying LPS in the closest proximity to both bone and vasculature. […]
Resultant oxidative stress was measured by image processing after four hours by the CellROX™ Orange Reactive Oxygen Species Detection Kit (Thermo Fisher), a fluorometric reactive oxygen species (ROS) assay, according to the manufacture's protocol. […] The same microscope was used to capture images for each experiment and exposure and other microscope settings were kept constant to allow quantitative comparisons between micrographs. Quantitative measurement of relative ROS was conducted by image analysis via ImageJ and Matlab®. Briefly, for each condition (i.e., i)-LPS-RAP; ii)+LPS-RAP; iii)+LPS+RAP) images were split into three regions of interest (ROIs), representing the three channel of the devices (vasculature, bone, cartilage), that were separately analyzed. […]

| Molecule | MMP changes (fold change) / inflammatory condition [1] | oxidative stress of the cells (relative ROS, normalized image intensity) [2] |
| --- | --- | --- |
| CC(C)(C)c1cc(C=C(C#N)C#N)cc(C(C)(C)C)c1O [Tyrphostin-9] | inflammatory condition is improved | – |
| lipopolysaccharide [LPS] | – | increases the oxidative stress of the cells in all the compartment |

Source: patent US20250354096A1, “IN VITRO DEVICE FOR VASCULARIZED MICROFLUIDIC MODELING OF OSTEOCHONDRAL UNIT” (CFD Research Corporation, priority 2024, published 2025)
